In US5968910A, “Compositions containing two or three inhibitors of different HIV reverse transcriptases” (priority 1994, dated 1999):
pIC50: −log10 of the molar value. Converted amounts (≈) assume the structure as drawn. Read-outs that look alike come from different tables or passages of the source.

Legend:
HIV-1(IIIB) (WT) = assay: microbe, parasite or virus in culture; type: cell-based; details: Human immunodeficiency virus 1, IIIB, CCRF-CEM
Outline: (§1)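 Syncytium formation read out after 4 days at 37° C. Cultures: CEM cells, 250,000/ml, infected at 100 50% cell culture infective doses/ml and added to compound dilutions.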

HIV-1/B 101Glu = assay: Sensitivity of mutant HIV-1 strain in CEM cell cultures; type: cell-based; details: Human immunodeficiency virus 1, CCRF-CEM; Table 5; read-out: EC50
Outline: as §1

HIV-1/I(0.1) 103-Asn = assay: as above; type: cell-based; details: Human immunodeficiency virus 1, CCRF-CEM; Table 5; read-out: EC50
Outline: as §1

HIV-1/II(0.1) 100-Ile = assay: as above; type: cell-based; details: Human immunodeficiency virus 1, CCRF-CEM; Table 5; read-out: EC50
Outline: as §1

HIV-1/III(0.1) 103-Asn = assay: as above; type: cell-based; details: Human immunodeficiency virus 1, CCRF-CEM; Table 5; read-out: EC50
Outline: as §1

HIV-1/IV(0.1) 103-Thr = assay: as above; type: cell-based; details: Human immunodeficiency virus 1, CCRF-CEM; Table 5; read-out: EC50
Outline: as §1

HIV-1/Nev (106-Ala) = assay: as above; type: cell-based; details: Human immunodeficiency virus 1, CCRF-CEM; CEM cells, Table 1; read-out: 50% Effective Concentration
Outline: as §1

HIV-1/Pyr (181-Cys) = assay: as above; type: cell-based; details: Human immunodeficiency virus 1, CCRF-CEM; CEM cells, Table 1; read-out: 50% Effective Concentration
Outline: as §1

[1] = tested on: HIV-1/TIBO R82150 (100-Ile); assay: as above; type: cell-based; details: Human immunodeficiency virus 1, CCRF-CEM; CEM cells, Table 1; read-out: 50% Effective Concentration
Outline: as §1

[2] = tested on: HIV-1/TIBO R82913 (103-Asn); assay: as above; type: cell-based; details: Human immunodeficiency virus 1, CCRF-CEM; CEM cells, Table 1; read-out: 50% Effective Concentration
Outline: as §1

[3] = tested on: HIV-1/TSAO-m^3 T (138-Lys); assay: as above; type: cell-based; details: Human immunodeficiency virus 1, CCRF-CEM; CEM cells, Table 1; read-out: 50% Effective Concentration
Outline: as §1

[4] = tested on: HIV-1/V(0.1) 101-Ile + 141-Glu; assay: as above; type: cell-based; details: Human immunodeficiency virus 1, CCRF-CEM; Table 5; read-out: EC50
Outline: as §1

HIV-1/V(0.5) 103-Asn = assay: as above; type: cell-based; details: Human immunodeficiency virus 1, CCRF-CEM; Table 5; read-out: EC50
Outline: as §1

HIV-1 RT (WT) = HIV-1 RT (WT) (Human immunodeficiency virus type 1 group M subtype B, UniProt P03366); assay: biochemical
Outline: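 Recombinant HIV-1 RT incubated 30 min at 37° C with poly(C).oligo(dG) (0.1 mM) and [³H]dGTP (2.95 μM) in Tris pH 7.8 with 5 mM MgCl2, 150 mM KCl, DTT, glutathione, Triton X-100; 5-fold compound dilutions. Acid-insoluble radioactivity counted after TCA/pyrophosphate precipitation.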

HIV-1(IIIB) = assay: Knock-out concentrations: breakthrough of HIV-1(IIIB)-induced cytopathicity in CEM cell cultures; type: cell-based; details: for activity at 0.1 µg/mL / activity at 0.5 µg/mL / activity at 2.5 µg/mL: Human immunodeficiency virus 1, IIIB, CCRF-CEM, read-out: HIV-1-induced cytopathicity in cell culture; for activity at 0.1 µg/mL: 0.1 μg/ml; for activity at 0.5 µg/mL: 0.5 μg/ml; for activity at 2.5 µg/mL: 2.5 μg/ml
Outline: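 CEM cells in RPMI 1640 with 10% FBS infected with HIV-1(IIIB) at ~1000× CCID50, subcultured every 3–4 days into fresh uninfected cells with drug held constant for 10 subcultivations (35 days), then ≥5 drug-free passages. Breakthrough scored by syncytium formation. Combinations used the two lowest single-drug starting concentrations.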

[5] = 936 h, day 39 post infection, compound absent from day 35
[6] = 1008 h, day 42 post infection, compound absent from day 35
[7] = 1104 h, day 46 post infection, compound absent from day 35
[8] = 1176 h, day 49 post infection, compound absent from day 35
[9] = 1272 h, day 53 post infection, compound absent from day 35

Q: How did the EC50 (HIV-1(IIIB) (WT); CEM cells, Table 1, read-out: 50% Effective Concentration) turn out when `Cc1occc1C(=S)Nc1ccc(Cl)c(C=NOC(C)(C)C)c1` [Compound I] was run?
A: 0.05 µg/mL (≈ 0.143 µM)

Q: What about the EC50 (HIV-1(IIIB) (WT); HIV-1 (III8), Table 5, read-out: EC50) of the same compound?
A: 0.01 µg/mL (≈ 0.0285 µM)

Q: And the IC50 (HIV-1(IIIB) (WT); range stated for Compounds I-V together, read-out: 50% inhibitory concentration, HIV-1(IIIB) replication in CEM cells)?
A: 0.004 to 0.05 µg/mL (≈ 0.0114 to 0.143 µM)

Q: And the EC50 (HIV-1/B 101Glu)?
A: ≥ 1 µg/mL

Q: What about the EC50 (HIV-1/I(0.1) 103-Asn) of the same compound?
A: 0.23 µg/mL (≈ 0.656 µM)

Q: What about the EC50 (HIV-1/II(0.1) 100-Ile) of the same compound?
A: 1.25 µg/mL (≈ 3.56 µM)

Q: What about the EC50 (HIV-1/III(0.1) 103-Asn) of the same compound?
A: 0.3 µg/mL (≈ 0.855 µM)

Q: And the EC50 (HIV-1/IV(0.1) 103-Thr)?
A: 0.6 µg/mL (≈ 1.71 µM)

Q: What about the EC50 (HIV-1/Nev (106-Ala)) of the same compound?
A: 0.13 µg/mL (≈ 0.371 µM)

Q: What about the EC50 (HIV-1/Pyr (181-Cys)) of the same compound?
A: 0.075 µg/mL (≈ 0.214 µM)

Q: And the EC50 [1]?
A: 0.085 µg/mL (≈ 0.242 µM)

Q: What about the EC50 [2] of the same compound?
A: ≥ 1 µg/mL

Q: And the EC50 [3]?
A: 0.075 µg/mL (≈ 0.214 µM)

Q: What about the EC50 [4] of the same compound?
A: 0.12 µg/mL (≈ 0.342 µM)

Q: And the EC50 (HIV-1/V(0.5) 103-Asn)?
A: 0.73 µg/mL (≈ 2.08 µM)

Q: What about the pIC50 (HIV-1 RT (WT); range stated for the compounds together, poly(C).oligo(dG), 2.95 μM [2,8-3H]dGTP, read-out: IC50 on recombinant HIV-1 RT) of the same compound?
A: 6.66 to 7.29

Q: And the IC50 (HIV-1 RT (WT); substrate [2,8-3H]dGTP 2.95 μM, template poly(rC)oligo(dG), read-out: IC50, anti-HIV-1 RT (WT) activity (converted))?
A: 202 nM

Q: What about the “prevention of virus breakthrough, fold more efficient than BHAP” value (HIV-1(IIIB)) of the same compound?
A: at least 5 fold

Q: What about the “prevention of virus breakthrough, fold more efficient than nevirapine” value (HIV-1(IIIB)) of the same compound?
A: ≥ 25 fold

Q: And the activity at 0.1 µg/mL (HIV-1(IIIB); 96 h, day 4 post infection)?
A: 0%

Q: And the activity at 0.5 µg/mL (HIV-1(IIIB); 96 h, day 4 post infection)?
A: 0%

Q: What about the activity at 2.5 µg/mL (HIV-1(IIIB); 96 h, day 4 post infection) of the same compound?
A: 0%

Q: And the activity at 0.1 µg/mL (HIV-1(IIIB); 192 h, day 8 post infection)?
A: 0%

Q: What about the activity at 0.5 µg/mL (HIV-1(IIIB); 192 h, day 8 post infection) of the same compound?
A: 0%

Q: What about the activity at 2.5 µg/mL (HIV-1(IIIB); 192 h, day 8 post infection) of the same compound?
A: 0%

Q: And the activity at 0.1 µg/mL (HIV-1(IIIB); 264 h, day 11 post infection)?
A: 6.2%

Q: What about the activity at 0.5 µg/mL (HIV-1(IIIB); 264 h, day 11 post infection) of the same compound?
A: 0%

Q: And the activity at 2.5 µg/mL (HIV-1(IIIB); 264 h, day 11 post infection)?
A: 0%

Q: What about the activity at 0.1 µg/mL (HIV-1(IIIB); 336 h, day 14 post infection) of the same compound?
A: 25%

Q: And the activity at 0.5 µg/mL (HIV-1(IIIB); 336 h, day 14 post infection)?
A: 0%

Q: What about the activity at 2.5 µg/mL (HIV-1(IIIB); 336 h, day 14 post infection) of the same compound?
A: 0%

Q: And the activity at 0.1 µg/mL (HIV-1(IIIB); 408 h, day 17 post infection)?
A: 100%

Q: What about the activity at 0.5 µg/mL (HIV-1(IIIB); 408 h, day 17 post infection) of the same compound?
A: 0%

Q: What about the activity at 2.5 µg/mL (HIV-1(IIIB); 408 h, day 17 post infection) of the same compound?
A: 0%

Q: What about the activity at 0.1 µg/mL (HIV-1(IIIB); 504 h, day 21 post infection) of the same compound?
A: 100%

Q: And the activity at 0.5 µg/mL (HIV-1(IIIB); 504 h, day 21 post infection)?
A: 0%

Q: And the activity at 2.5 µg/mL (HIV-1(IIIB); 504 h, day 21 post infection)?
A: 0%

Q: And the activity at 0.1 µg/mL (HIV-1(IIIB); 600 h, day 25 post infection)?
A: 100%

Q: And the activity at 0.5 µg/mL (HIV-1(IIIB); 600 h, day 25 post infection)?
A: 0%

Q: What about the activity at 2.5 µg/mL (HIV-1(IIIB); 600 h, day 25 post infection) of the same compound?
A: 0%

Q: And the activity at 0.1 µg/mL (HIV-1(IIIB); 672 h, day 28 post infection)?
A: 100%

Q: And the activity at 0.5 µg/mL (HIV-1(IIIB); 672 h, day 28 post infection)?
A: 0%

Q: And the activity at 2.5 µg/mL (HIV-1(IIIB); 672 h, day 28 post infection)?
A: 0%

Q: And the activity at 0.1 µg/mL (HIV-1(IIIB); 768 h, day 32 post infection)?
A: 100%

Q: And the activity at 0.5 µg/mL (HIV-1(IIIB); 768 h, day 32 post infection)?
A: 0%

Q: What about the activity at 2.5 µg/mL (HIV-1(IIIB); 768 h, day 32 post infection) of the same compound?
A: 0%

Q: And the activity at 0.1 µg/mL (HIV-1(IIIB); 840 h, day 35 post infection)?
A: 100%

Q: What about the activity at 0.5 µg/mL (HIV-1(IIIB); 840 h, day 35 post infection) of the same compound?
A: 0%

Q: What about the activity at 2.5 µg/mL (HIV-1(IIIB); 840 h, day 35 post infection) of the same compound?
A: 0%

Q: And the activity at 0.1 µg/mL (HIV-1(IIIB); [5])?
A: 100%

Q: What about the activity at 0.5 µg/mL (HIV-1(IIIB); [5]) of the same compound?
A: 0%

Q: What about the activity at 2.5 µg/mL (HIV-1(IIIB); [5]) of the same compound?
A: 0%

Q: What about the activity at 0.1 µg/mL (HIV-1(IIIB); [6]) of the same compound?
A: 100%

Q: And the activity at 0.5 µg/mL (HIV-1(IIIB); [6])?
A: 0%

Q: What about the activity at 2.5 µg/mL (HIV-1(IIIB); [6]) of the same compound?
A: 0%

Q: What about the activity at 0.1 µg/mL (HIV-1(IIIB); [7]) of the same compound?
A: 100%

Q: And the activity at 0.5 µg/mL (HIV-1(IIIB); [7])?
A: 0%

Q: And the activity at 2.5 µg/mL (HIV-1(IIIB); [7])?
A: 0%

Q: And the activity at 0.1 µg/mL (HIV-1(IIIB); [8])?
A: 100%

Q: And the activity at 0.5 µg/mL (HIV-1(IIIB); [8])?
A: 0%

Q: What about the activity at 2.5 µg/mL (HIV-1(IIIB); [8]) of the same compound?
A: 0%

Q: And the activity at 0.1 µg/mL (HIV-1(IIIB); [9])?
A: 100%

Q: And the activity at 0.5 µg/mL (HIV-1(IIIB); [9])?
A: 0%

Q: And the activity at 2.5 µg/mL (HIV-1(IIIB); [9])?
A: 0%

Q: And the “concentration at which virus emerged (virus breakthrough)” value (HIV-1(IIIB); tested at 0.1, 0.5 and 2.5 μg/ml, 35 days)?
A: 0.1 µg/mL
